Measurements from Sander's compilation of Henry's law constants (doi:10.1021/es00156a005).

Assay: Henry solubility constant Hcp at 293 K (mol/(m3 Pa))
Details: reference: Murphy et al. (1987)

SMILES | Henry solubility constant Hcp at 293 K
Clc1ccc(-c2c(Cl)c(Cl)cc(Cl)c2Cl)c(Cl)c1Cl [2,2',3,3',4,5',6'-heptachlorobiphenyl] | 0.3
Clc1cc(Cl)c(Cl)c(-c2ccc(Cl)c(Cl)c2Cl)c1 [2,2',3,3',4,5'-hexachlorobiphenyl] | 0.092
Clc1cc(-c2c(Cl)ccc(Cl)c2Cl)c(Cl)c(Cl)c1Cl [2,2',3,3',4,5,6'-heptachlorobiphenyl] | 0.2
Clc1cc(Cl)c(-c2c(Cl)ccc(Cl)c2Cl)c(Cl)c1Cl [2,2',3,3',4,6,6'-heptachlorobiphenyl] | 0.11
Clc1cccc(-c2c(Cl)cc(Cl)c(Cl)c2Cl)c1Cl [2,2',3,3',4,6-hexachlorobiphenyl] | 0.15
Clc1cccc(-c2ccc(Cl)c(Cl)c2Cl)c1Cl [2,2',3,3',4-pentachlorobiphenyl] | 0.084
Clc1cc(Cl)c(Cl)c(-c2c(Cl)ccc(Cl)c2Cl)c1 [2,2',3,3',5,6'-hexachlorobiphenyl] | 0.07
Clc1cc(Cl)c(Cl)c(-c2cccc(Cl)c2Cl)c1 [2,2',3,3',5-pentachlorobiphenyl] | 0.06
Clc1ccc(Cl)c(-c2c(Cl)ccc(Cl)c2Cl)c1Cl [2,2',3,3',6,6'-hexachlorobiphenyl] | 0.044
Clc1cccc(-c2c(Cl)ccc(Cl)c2Cl)c1Cl [2,2',3,3',6-pentachlorobiphenyl] | 0.057
Clc1cccc(-c2cccc(Cl)c2Cl)c1Cl [2,2',3,3'-tetrachlorobiphenyl] | 0.061
Clc1cc(Cl)c(-c2c(Cl)ccc(Cl)c2Cl)cc1Cl [2,2',3,4',5',6-hexachlorobiphenyl] | 0.067
Clc1cc(Cl)c(-c2cccc(Cl)c2Cl)cc1Cl [2,2',3,4',5'-pentachlorobiphenyl] | 0.066
Clc1cc(Cl)c(-c2c(Cl)c(Cl)cc(Cl)c2Cl)cc1Cl [2,2',3,4',5,5',6-heptachlorobiphenyl] | 0.12
Clc1cc(Cl)c(Cl)c(-c2cc(Cl)c(Cl)cc2Cl)c1 [2,2',3,4',5,5'-hexachlorobiphenyl] | 0.11
Clc1ccc(-c2c(Cl)ccc(Cl)c2Cl)c(Cl)c1 [2,2',3,4',6-pentachlorobiphenyl] | 0.036
Clc1ccc(-c2cccc(Cl)c2Cl)c(Cl)c1 [2,2',3,4'-tetrachlorobiphenyl] | 0.05
Clc1cc(Cl)c(-c2c(Cl)cc(Cl)c(Cl)c2Cl)cc1Cl [2,2',3,4,4',5',6-heptachlorobiphenyl] | 0.15
Clc1cc(Cl)c(-c2ccc(Cl)c(Cl)c2Cl)cc1Cl [2,2',3,4,4',5'-hexachlorobiphenyl] | 0.13
Clc1ccc(-c2cc(Cl)c(Cl)c(Cl)c2Cl)c(Cl)c1 [2,2',3,4,4',5-hexachlorobiphenyl] | 0.15
Clc1ccc(-c2ccc(Cl)c(Cl)c2Cl)c(Cl)c1 [2,2',3,4,4'-pentachlorobiphenyl] | 0.06

SMILES | Henry solubility constant Hcp at 293 K
Clc1ccc(Cl)c(-c2c(Cl)cc(Cl)c(Cl)c2Cl)c1 [2,2',3,4,5',6-hexachlorobiphenyl] | 0.07
Clc1ccc(Cl)c(-c2cc(Cl)c(Cl)c(Cl)c2Cl)c1 [2,2',3,4,5,5'-hexachlorobiphenyl] | 0.1
Clc1ccccc1-c1ccc(Cl)c(Cl)c1Cl [2,2',3,4-tetrachlorobiphenyl] | 0.049
Clc1ccc(Cl)c(-c2c(Cl)ccc(Cl)c2Cl)c1 [2,2',3,5',6-pentachlorobiphenyl] | 0.05
Clc1ccc(Cl)c(-c2cccc(Cl)c2Cl)c1 [2,2',3,5'-tetrachlorobiphenyl] | 0.052
Clc1cccc(-c2c(Cl)cccc2Cl)c1Cl [2,2',3,6'-tetrachlorobiphenyl] | 0.038
Clc1ccccc1-c1cccc(Cl)c1Cl [2,2',3-trichlorobiphenyl] | 0.041
Clc1cc(Cl)c(-c2cc(Cl)c(Cl)cc2Cl)cc1Cl [2,2',4,4',5,5'-hexachlorobiphenyl] | 0.1
Clc1ccc(-c2cc(Cl)c(Cl)cc2Cl)c(Cl)c1 [2,2',4,4',5-pentachlorobiphenyl] | 0.046
Clc1ccc(-c2cc(Cl)ccc2Cl)c(Cl)c1 [2,2',4,5'-tetrachlorobiphenyl] | 0.036
Clc1ccc(Cl)c(-c2cc(Cl)c(Cl)cc2Cl)c1 [2,2',4,5,5'-pentachlorobiphenyl] | 0.055
Clc1cc(Cl)c(-c2ccccc2Cl)cc1Cl [2,2',4,5-tetrachlorobiphenyl] | 0.039
Clc1ccc(-c2ccccc2Cl)c(Cl)c1 [2,2',4-trichlorobiphenyl] | 0.03
Clc1ccc(Cl)c(-c2cc(Cl)ccc2Cl)c1 [2,2',5,5'-tetrachlorobiphenyl] | 0.041
Clc1ccc(Cl)c(-c2ccccc2Cl)c1 [2,2',5-trichlorobiphenyl] | 0.033
Clc1ccccc1-c1c(Cl)cccc1Cl [2,2',6-trichlorobiphenyl] | 0.033
Clc1ccccc1-c1ccccc1Cl [2,2'-dichlorobiphenyl] | 0.033
Clc1ccccc1-c1cc(Cl)c(Cl)c(Cl)c1 [2,3',4',5'-tetrachlorobiphenyl] | 0.077
Clc1ccc(Cl)c(-c2cc(Cl)c(Cl)c(Cl)c2)c1 [2,3',4',5,5'-pentachlorobiphenyl] | 0.19
Clc1ccc(Cl)c(-c2ccc(Cl)c(Cl)c2)c1 [2,3',4',5-tetrachlorobiphenyl] | 0.052
Clc1ccc(-c2ccccc2Cl)cc1Cl [2,3',4'-trichlorobiphenyl] | 0.044

SMILES | Henry solubility constant Hcp at 293 K
Clc1ccc(-c2cc(Cl)c(Cl)cc2Cl)cc1Cl [2,3',4,4',5-pentachlorobiphenyl] | 0.12
Clc1ccc(-c2ccc(Cl)c(Cl)c2)c(Cl)c1 [2,3',4,4'-tetrachlorobiphenyl] | 0.049
Clc1cccc(-c2ccc(Cl)cc2Cl)c1 [2,3',4-trichlorobiphenyl] | 0.024
Clc1cccc(-c2cc(Cl)ccc2Cl)c1 [2,3',5-trichlorobiphenyl] | 0.029
Clc1cccc(-c2c(Cl)cccc2Cl)c1 [2,3',6-trichlorobiphenyl] | 0.035
Clc1cccc(-c2ccccc2Cl)c1 [2,3'-dichlorobiphenyl] | 0.032
Clc1cc(-c2cccc(Cl)c2Cl)cc(Cl)c1Cl [2,3,3',4',5'-pentachlorobiphenyl] | 0.16
Clc1cc(Cl)c(Cl)c(-c2ccc(Cl)c(Cl)c2)c1 [2,3,3',4',5-pentachlorobiphenyl] | 0.17
Clc1ccc(-c2c(Cl)ccc(Cl)c2Cl)cc1Cl [2,3,3',4',6-pentachlorobiphenyl] | 0.093
Clc1ccc(-c2cccc(Cl)c2Cl)cc1Cl [2,3,3',4'-tetrachlorobiphenyl] | 0.061
Clc1ccc(-c2c(Cl)cc(Cl)c(Cl)c2Cl)cc1Cl [2,3,3',4,4',6-hexachlorobiphenyl] | 0.23
Clc1ccc(-c2cc(Cl)cc(Cl)c2Cl)cc1 [2,3,4',5-tetrachlorobiphenyl] | 0.034
Clc1ccc(-c2c(Cl)ccc(Cl)c2Cl)cc1 [2,3,4',6-tetrachlorobiphenyl] | 0.058
Clc1ccc(-c2ccc(Cl)c(Cl)c2Cl)cc1 [2,3,4,4'-tetrachlorobiphenyl] | 0.061
Clc1ccc(Cl)c(-c2ccccc2)c1Cl [2,3,6-trichlorobiphenyl] | 0.031
Clc1ccc(-c2cc(Cl)ccc2Cl)cc1 [2,4',5-trichlorobiphenyl] | 0.037
Clc1ccc(-c2ccccc2Cl)cc1 [2,4'-dichlorobiphenyl] | 0.035
Clc1ccc(-c2ccccc2)c(Cl)c1 [2,4-dichlorobiphenyl] | 0.027
Clc1ccc(-c2ccc(Cl)c(Cl)c2)cc1 [3,4,4'-trichlorobiphenyl] | 0.065
